According to publication PMC5824344 (ACS Chemical Biology, 2017):

How the values were obtained:
[1] = target: T1, Rat liver ER α-glucosidase II (Rattus norvegicus, UniProt A0A8I6GFL3); assay: Inhibition of isolated rat liver ER α-glucosidase II (α-p-nitrophenylglucoside substrate); assay type: biochemical; conditions: isolated enzyme in vitro; read-out: IC50 with regard to GluII
T1 construct: Rat liver ER, II; from tissue; host or cells: liver of male Wistar rats
Method: (§1) 4 Enzyme Inhibition Assays
(§2) All rat enzymes were isolated from 18-week-old, male Wistar rats, while human lysosomal α-glucosidase was obtained in commercially available form from Sanoﬁ Genzyme. Inhibition of isolated glucosidases was evaluated as described previously. 3 Brieﬂy, maltase, isomaltase, sucrase, and cellobiase were used as partially puriﬁed tissue extracts. Inhibition assays for each enzyme were performed with the respective natural substrate, and release of d-glucose measured by Glucose B-test (Wako Diagnostics). Assays of rat ER α-glucosidase II and human lysosomal α-glucosidase inhibition were conducted with α-p-nitrophenylglucoside as substrate; 400 mm Na2CO3 was added to quench these reactions, and the extent of hydrolysis was evaluated as absorbance at 400 nm by spectrophotometer.
(§3) ER α-glucosidase I inhibition assays were performed using anthranilic acid-labelled Glc3Man7GlcNAc2 as substrate. After terminating the reaction with acetonitrile, protein was removed by cen-trifugation through a 10 kDa molecular weight cut oﬀ ﬁlter. The amount of hydrolysis was then quantiﬁed by normal phase high performance liquid chromatography analysis of unreacted substrate and product (Glc2Man7GlcNAc2).4
(§4) ER α-glucosidase II inhibition assays using native-like substrates were performed using an-thranilic acid-labelled Glc2Man7GlcNAc2 as substrate. After terminating the reaction with acetonitrile, protein was removed by centrifugation through a 10 kDa molecular weight cut oﬀ ﬁlter. The amount of hydrolysis was then quantiﬁed by normal phase high performance liq-uid chromatography analysis of unreacted substrate and both products (Glc1Man7GlcNAc2

Rat intestinal maltase = assay: Inhibition of rat intestinal maltase (natural substrate, glucose release); assay type: biochemical; conditions: for IC50: isolated enzyme in vitro, mean of three measurements, read-out: IC50, α-Glucosidase, Rat intestinal maltase
Method: as §1, §2, §3, §4

[2] = target: T2, Rat intestinal isomaltase (Rattus norvegicus, UniProt P23739); assay: Inhibition of rat intestinal isomaltase (natural substrate, glucose release); assay type: biochemical; conditions: for IC50: isolated enzyme in vitro, mean of three measurements, read-out: IC50, α-Glucosidase, Rat intestinal isomaltase
T2 construct: from tissue; host or cells: intestine of male Wistar rats, partially purified extract
T2 sequence (P23739 whole entry): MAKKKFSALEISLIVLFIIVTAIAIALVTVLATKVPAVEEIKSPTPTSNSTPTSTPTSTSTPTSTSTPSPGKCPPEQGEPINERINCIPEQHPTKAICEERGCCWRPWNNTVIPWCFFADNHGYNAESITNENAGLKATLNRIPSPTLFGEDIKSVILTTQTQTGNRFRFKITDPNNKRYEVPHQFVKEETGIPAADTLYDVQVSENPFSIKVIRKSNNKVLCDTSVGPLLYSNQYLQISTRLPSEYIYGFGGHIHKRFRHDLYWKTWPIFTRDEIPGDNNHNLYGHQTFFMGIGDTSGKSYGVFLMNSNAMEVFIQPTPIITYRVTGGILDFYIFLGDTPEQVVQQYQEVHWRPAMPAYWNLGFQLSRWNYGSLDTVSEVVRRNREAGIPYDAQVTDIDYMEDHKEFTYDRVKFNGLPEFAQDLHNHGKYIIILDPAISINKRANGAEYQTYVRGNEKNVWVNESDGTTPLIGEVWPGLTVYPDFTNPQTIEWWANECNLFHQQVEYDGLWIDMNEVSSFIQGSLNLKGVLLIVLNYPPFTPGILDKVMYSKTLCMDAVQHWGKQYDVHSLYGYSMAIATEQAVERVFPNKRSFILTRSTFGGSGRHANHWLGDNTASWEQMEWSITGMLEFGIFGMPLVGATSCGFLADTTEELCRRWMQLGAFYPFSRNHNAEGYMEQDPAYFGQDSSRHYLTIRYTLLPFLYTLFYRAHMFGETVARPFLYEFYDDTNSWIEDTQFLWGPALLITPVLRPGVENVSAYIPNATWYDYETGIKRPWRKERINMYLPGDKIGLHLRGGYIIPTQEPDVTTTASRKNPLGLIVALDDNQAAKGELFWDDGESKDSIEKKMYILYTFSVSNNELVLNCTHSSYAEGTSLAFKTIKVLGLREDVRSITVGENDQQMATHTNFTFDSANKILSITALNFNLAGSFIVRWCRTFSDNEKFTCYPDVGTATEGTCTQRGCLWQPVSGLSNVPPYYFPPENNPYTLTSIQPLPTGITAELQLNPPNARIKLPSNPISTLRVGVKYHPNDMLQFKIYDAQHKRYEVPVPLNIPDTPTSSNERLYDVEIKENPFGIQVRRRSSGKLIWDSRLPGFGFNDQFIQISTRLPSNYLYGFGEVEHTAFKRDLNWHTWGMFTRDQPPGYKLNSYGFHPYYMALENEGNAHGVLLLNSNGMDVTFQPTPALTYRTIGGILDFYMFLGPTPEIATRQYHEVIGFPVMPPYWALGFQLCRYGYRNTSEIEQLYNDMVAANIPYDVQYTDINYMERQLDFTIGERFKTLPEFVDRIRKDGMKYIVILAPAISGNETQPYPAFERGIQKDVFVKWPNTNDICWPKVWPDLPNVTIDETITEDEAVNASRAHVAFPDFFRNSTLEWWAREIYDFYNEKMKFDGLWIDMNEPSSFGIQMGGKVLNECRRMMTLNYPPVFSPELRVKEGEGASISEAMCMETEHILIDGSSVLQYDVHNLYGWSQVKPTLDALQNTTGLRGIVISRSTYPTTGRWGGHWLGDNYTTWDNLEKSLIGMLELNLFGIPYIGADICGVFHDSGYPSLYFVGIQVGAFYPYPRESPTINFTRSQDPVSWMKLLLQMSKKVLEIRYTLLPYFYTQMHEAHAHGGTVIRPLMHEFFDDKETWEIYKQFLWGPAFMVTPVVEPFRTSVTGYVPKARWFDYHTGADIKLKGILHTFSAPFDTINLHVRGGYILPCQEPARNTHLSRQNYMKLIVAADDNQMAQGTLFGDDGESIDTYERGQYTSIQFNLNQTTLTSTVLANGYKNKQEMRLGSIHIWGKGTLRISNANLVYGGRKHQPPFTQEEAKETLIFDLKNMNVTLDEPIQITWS
Method: as §1, §2, §3, §4

Rat intestinal sucrase = target: T3, Rat intestinal sucrase (Rattus norvegicus, UniProt P23739); assay: Inhibition of rat intestinal sucrase (natural substrate, glucose release); assay type: biochemical; conditions: for IC50: isolated enzyme in vitro, mean of three measurements, read-out: IC50, α-Glucosidase, Rat intestinal sucrase
T3 construct: from tissue; host or cells: intestine of male Wistar rats, partially purified extract
T3 sequence (P23739 whole entry): as above

[3] = target: T4, human lysosomal α-glucosidase (Homo sapiens, UniProt P10253); assay: Inhibition of human lysosomal α-glucosidase (α-p-nitrophenylglucoside substrate); assay type: biochemical; conditions: for IC50: isolated enzyme in vitro, mean of three measurements, read-out: IC50, α-Glucosidase, Human lysosome
T4 construct: purchased Sanofi Genzyme

[4] = system: GluI and GluII in primary human monocyte-derived macrophages (MDMΦ); assay: Free oligosaccharide (FOS) assay in primary monocyte-derived macrophages; assay type: cell-based; conditions: naive MDMΦ
Method: (§5) 5 Cell and Virus Culture and Assays
(§6) 5.1 Culture of Cell Lines
The human hepatoma cell line Huh7.5 (Apath, LLC) was cultured in Dulbecco’s modiﬁed Eagle medium (DMEM) with Glutamax (Gibco) supplemented with 100 µg mL−1 strepto-mycin (Sigma), 100 U mL−1 penicillin (Sigma), 100 µm MEM non-essential amino acids (Gibco) and 10% (volume/volume, v/v) heat-inactivated (56 ◦C, 30 min) fetal calf serum (FCS, Seralab). The human monocytic cell line HL60 (ATCC), human T lymphocyte cell line Jurkat (ATCC), and human B lymphocyte cell line Raji (ATCC) were each maintained in RPMI 1640 media with Glutamax (Gibco) supplemented with 100 µg mL−1 streptomycin, 100 U mL−1 penicillin and 10% (v/v) FCS. […]
(§7) Cell viability was measured using the CellTiter 96 R© AQueous One Solution Cell Prolifera-tion MTA (3-(4,5-dimethylthiazol-2-yl)-5-(3-carboxymethoxyphenyl)-2-(4-sulfophenyl)-2H - […]
(§8) After a further one to two hour incubation, the absorbance at 490 nm was measured on a Molecular Devices SpectraMax M5 microplate reader. […]
(§9) Absorbances were averaged across replicates, and corrected for background by subtracting the value for media-only wells. Each drug treatment was then evaluated as a percentage of untreated cells. […]
FOS analysis was carried out as described previously. […] Before purifying the FOS, each sample was analyzed for protein content using the modiﬁed Bradford assay. […]

[5] = system: GluI and GluII in HL60 (promyelocytic) cells; assay: Free oligosaccharide (FOS) assay in HL60 cells; assay type: cell-based, human; conditions: 48 h
Method: as §5, §6
The human hepatoma cell line Huh7.5 (Apath, LLC) was cultured in Dulbecco’s modiﬁed Eagle medium (DMEM) with Glutamax (Gibco) supplemented with 100 µg mL−1 strepto-mycin (Sigma), 100 U mL−1 penicillin (Sigma), 100 µm MEM non-essential amino acids (Gibco) and 10% (volume/volume, v/v) heat-inactivated (56 ◦C, 30 min) fetal calf serum (FCS, Seralab). The human monocytic cell line HL60 (ATCC), human T lymphocyte cell line Jurkat (ATCC), and human B lymphocyte cell line Raji (ATCC) were each maintained in RPMI 1640 media with Glutamax (Gibco) supplemented with 100 µg mL−1 streptomycin, 100 U mL−1 penicillin and 10% (v/v) FCS. The monkey kidney cell line LLC-MK2 (a gift from Armed Forces Research Institute of Medical Sciences, Thailand) was cultured in M199 media (Gibco) supplemented with 2 mm l-glutamine, 100 µg mL−1 streptomycin, 100 U mL−1 penicillin and 20% (v/v) FCS. Subsequently, these are referred to as growth media for each cell line. Unless otherwise indicated, all cell incubations were carried out at 37 ◦C and 5% CO2. All cells were maintained as mycoplasma free, with regular veriﬁcations by polymerase chain reaction (PCR).
5.2 Isolation and Culture of Primary Human MDMΦ
Primary human MDMΦ were generated from human monocytes isolated from buﬀy coats (NHS Blood and Transplant, surplus to clinical requirements) as described previously 5 and cultured in X-VIVO10 medium (Lonza) supplemented with 1% (v/v) heat-inactivated (56◦C, 30 min) autologous plasma. The use of human blood was approved by the NHS National Research Ethics Service (09/H0606/3).
as §7
tetrazolium, inner salt) Assay (Promega) according to the manufacturer’s instruction. Brieﬂy, cells were treated in triplicate either for 4 d (Huh7.5) or 2 d (all other cell types). […]
as §8, §9
FOS analysis was carried out as described previously. […] Before purifying the FOS, each sample was analyzed for protein content using the modiﬁed Bradford assay. […] The labelled glycans were then analyzed by normal phase high performance liquid chromatography. Retention times and peak area were used to identify and quantify glycans, respectively, by comparison to standards of known identity and molar quantity. FOS quantities were normalized to protein levels.

T1 sequence (A0A8I6GFL3 33-944): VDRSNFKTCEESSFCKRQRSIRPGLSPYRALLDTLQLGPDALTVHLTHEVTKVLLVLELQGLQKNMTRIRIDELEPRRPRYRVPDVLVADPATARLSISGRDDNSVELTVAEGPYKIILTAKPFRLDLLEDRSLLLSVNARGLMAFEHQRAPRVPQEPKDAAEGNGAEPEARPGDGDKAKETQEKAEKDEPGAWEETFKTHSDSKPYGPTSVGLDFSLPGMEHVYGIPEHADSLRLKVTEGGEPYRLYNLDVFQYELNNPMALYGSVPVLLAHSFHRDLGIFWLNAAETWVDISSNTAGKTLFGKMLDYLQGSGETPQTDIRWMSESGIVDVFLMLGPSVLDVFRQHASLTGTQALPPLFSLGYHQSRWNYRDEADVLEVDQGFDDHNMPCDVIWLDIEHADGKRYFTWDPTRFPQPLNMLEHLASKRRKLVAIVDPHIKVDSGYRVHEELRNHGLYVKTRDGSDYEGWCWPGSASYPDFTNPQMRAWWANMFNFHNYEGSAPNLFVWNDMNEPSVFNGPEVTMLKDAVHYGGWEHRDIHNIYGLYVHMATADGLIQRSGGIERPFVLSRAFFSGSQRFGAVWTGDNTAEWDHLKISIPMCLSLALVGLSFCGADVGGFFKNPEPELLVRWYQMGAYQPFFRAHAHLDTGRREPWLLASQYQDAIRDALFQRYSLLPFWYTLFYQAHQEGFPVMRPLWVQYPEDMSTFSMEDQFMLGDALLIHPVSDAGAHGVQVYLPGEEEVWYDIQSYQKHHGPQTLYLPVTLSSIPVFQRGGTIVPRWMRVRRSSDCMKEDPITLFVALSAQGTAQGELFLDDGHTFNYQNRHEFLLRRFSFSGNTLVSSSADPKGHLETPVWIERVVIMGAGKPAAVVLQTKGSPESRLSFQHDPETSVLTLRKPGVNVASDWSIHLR
T1 sequence (A0A8I6ADW9 1-525 partner): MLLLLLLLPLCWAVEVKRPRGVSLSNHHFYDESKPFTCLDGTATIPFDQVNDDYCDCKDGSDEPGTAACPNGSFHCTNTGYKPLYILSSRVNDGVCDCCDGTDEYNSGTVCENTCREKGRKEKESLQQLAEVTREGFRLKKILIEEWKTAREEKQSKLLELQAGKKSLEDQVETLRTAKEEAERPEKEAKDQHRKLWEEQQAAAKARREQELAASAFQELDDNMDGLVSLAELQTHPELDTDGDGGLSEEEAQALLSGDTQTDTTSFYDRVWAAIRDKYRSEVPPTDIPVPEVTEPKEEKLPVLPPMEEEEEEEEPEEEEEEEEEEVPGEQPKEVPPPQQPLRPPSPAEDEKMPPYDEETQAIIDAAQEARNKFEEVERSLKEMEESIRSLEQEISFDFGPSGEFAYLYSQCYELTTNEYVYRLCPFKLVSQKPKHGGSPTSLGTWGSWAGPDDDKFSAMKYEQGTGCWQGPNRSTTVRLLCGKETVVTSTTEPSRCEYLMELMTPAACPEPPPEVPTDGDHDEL

SMILES | IC50 [1] | IC50 (Rat intestinal maltase) | IC50 [2] | IC50 (Rat intestinal sucrase) | IC50 [3] | glucosylated free oligosaccharides (FOS) observed after treatment [4] | glucosylated free oligosaccharides (FOS) observed after treatment ([5]; 10 µm) | inhibition of intestinal maltase at the maximum tested concentration (Rat intestinal maltase; 50 μM) | inhibition at 50 µM ([2]; 50 μM, read-out: inhibition of intestinal isomaltase at the maximum tested concentration) | inhibition at 50 µM (Rat intestinal sucrase; 50 μM, read-out: inhibition of intestinal sucrase at the maximum tested concentration) | inhibition at 50 µM ([3]; 50 μM, read-out: inhibition of lysosomal glucosidase at the maximum tested concentration) | glucosylated free oligosaccharides (FOS) observed after treatment ([5]; 50 µm) | glucosylated free oligosaccharides (FOS) observed after treatment ([5]; 50 µm, listed as ToP-DNJ 4)
CCCCN1CC(O)C(O)C(O)C1CO [Compound 2, N-butyl-D-1-deoxynojirimycin, reference compound] | 13 µM | 1.7 µM | 1.6 µM | 0.43 µM | 2.1 µM | mono- and triglucosylated FOS were observed | produced glucosylated FOS |  |  |  |  |  | 
Cc1c(C)c2c(c(C)c1OCCCCCN1CC(O)C(O)C(O)C1CO)CCC(C)(CCCC(C)CCCC(C)CCCC(C)C)O2 (centres unmarked) [Compound 4, 5′-tocopheroxypentyl-DNJ] | 9 µM | > 50 µM | > 50 µM | > 50 µM | > 50 µM | Only monoglucosylated FOS accumulated | did not | less than 50% | < 50% | < 50% | < 50% | detected | production of monoglucosylated FOS
